Target: T1, Y2 receptors (Homo sapiens, UniProt P49146)
T1 construct: endogenous in cells; host or cells: KAN-Ts cells (membranes)
T1 sequence (P49146 1-381): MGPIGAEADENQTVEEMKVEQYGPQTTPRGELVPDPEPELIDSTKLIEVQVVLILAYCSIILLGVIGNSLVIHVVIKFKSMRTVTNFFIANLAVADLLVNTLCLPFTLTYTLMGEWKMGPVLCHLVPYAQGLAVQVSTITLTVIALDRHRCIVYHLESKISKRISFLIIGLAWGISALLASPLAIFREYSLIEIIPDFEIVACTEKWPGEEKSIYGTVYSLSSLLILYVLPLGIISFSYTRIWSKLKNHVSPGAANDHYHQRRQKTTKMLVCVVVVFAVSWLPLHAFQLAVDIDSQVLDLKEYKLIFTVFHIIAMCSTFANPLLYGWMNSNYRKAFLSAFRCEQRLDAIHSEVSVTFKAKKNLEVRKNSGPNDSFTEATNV
Experiment: Radioligand binding assay ([125I]PYY, KAN-Ts cell membranes)
Conditions: Table 2, [125I]PYY 80 pM, average of results, read-out: IC50
Method in brief: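 Membranes from KAN-Ts cells endogenously expressing Y2 incubated 1 h at rt with 80 pM [^125I]PYY ± test compound in HEPES buffer with NaCl, Ca^2+ and Mg^2+. Bound radioactivity collected by filtration; specific binding defined with […]. IC50 from sigmoidal fit, averaged over 3-8 duplicate experiments.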

Structure (SMILES) | IC50 [nM]
CCC(CC)C(=O)Nc1ccc(N2CCN(C(C(=O)N(CC)CC)c3ccc(C#N)cc3)CC2)c(F)c1 (stereo not shown) [Example 254, N-(4-{4-[(4-Cyano-phenyl)-diethylcarbamoyl-methyl]-piperazin-1-yl}-3-fluoro-phenyl)-2-ethyl-butyramide] | 44
CCOc1ccc(C(C(=O)N(CC)CC)N2CCN(c3ccc(NC(=O)C(CC)CC)cc3F)CC2)cc1 (stereo not shown) [Example 255, N-(4-{4-[Diethylcarbamoyl-(4-ethoxy-phenyl)-methyl]-piperazin-1-yl}-3-fluoro-phenyl)-2-ethyl-butyramide] | 44
CCC(CC)C(=O)Nc1ccc(N2CCN(C(C(=O)N(CC)CC)c3ccc(OC(F)(F)F)cc3)CC2)c(F)c1 (stereo not shown) [Example 256, N-(4-{4-[Diethylcarbamoyl-(4-trifluoromethoxy-phenyl)-methyl]-piperazin-1-yl}-3-fluoro-phenyl)-2-ethyl-butyramide] | 26
CCC(CC)C(=O)Nc1ccc(N2CCN(C(C(=O)N(CC)CC)c3ccccc3)C(C)C2)c(F)c1 (stereo not shown) [Example 257, N-{4-[4-(Diethylcarbamoyl-phenyl-methyl)-3-methyl-piperazin-1-yl]-3-fluoro-phenyl}-2-ethyl-butyramide] | 68
CCC(CC)C(=O)Nc1ccc(N2CCN(C(C(=O)N(CC)CC)c3ccccc3)CC2C)c(F)c1 (stereo not shown) [Example 258] | 145
CCC(CC)C(=O)Nc1ccc(N2CCN(C(C(=O)c3ccccc3)c3ccccc3)CC2)c(F)c1 (stereo not shown) [Example 259, 2-Ethyl-N-{3-fluoro-4-[4-(2-oxo-1,2-diphenyl-ethyl)-piperazin-1-yl]-phenyl}-butyramide] | 70
CCC(CC)C(=O)Nc1ccc(N2CCN(C(C(=O)N(CC)CC)c3ccccn3)CC2)c(F)c1 (stereo not shown) [Example 260, N-{4-[4-(Diethylcarbamoyl-pyridin-2-yl-methyl)-piperazin-1-yl]-3-fluoro-phenyl}-2-ethyl-butyramide] | 100
CCC(CC)C(=O)Nc1ccc(N2CCN(C(C(=O)N3CCC(F)(F)C3)c3ccccn3)CC2)c(F)c1 (stereo not shown) [Example 261, N-(4-{4-[2-(3,3-Difluoro-pyrrolidin-1-yl)-2-oxo-1-pyridin-2-yl-ethyl]-piperazin-1-yl}-3-fluoro-phenyl)-2-ethyl-butyramide] | 130
CCC(CC)C(=O)Nc1ccc(N2CCN(C(C(=O)OC)c3ccc(O)cc3)CC2)c(F)c1 (stereo not shown) [Example 262, {4-[4-(2-Ethyl-butyrylamino)-2-fluoro-phenyl]-piperazin-1-yl}-(4-hydroxy-phenyl)-acetic acid methyl ester] | 162
CCC(CC)C(=O)Nc1ccc(N2CCN(C(C(=O)OC)c3ccc(OC)cc3)CC2)c(F)c1 (stereo not shown) [Example 263, {4-[4-(2-Ethyl-butyrylamino)-2-fluoro-phenyl]-piperazin-1-yl}-(4-methoxy-phenyl)-acetic acid methyl ester] | 250
CCC(CC)C(=O)Nc1ccc(N2CCN(C(C(=O)OC)c3ccccn3)CC2)c(F)c1 (stereo not shown) [Example 264, {4-[4-(2-Ethyl-butyrylamino)-2-fluoro-phenyl]-piperazin-1-yl}-pyridin-2-yl-acetic acid methyl ester] | 550
CCC(CC)C(=O)Nc1ccc(N2CCN(C(CO)c3ccccc3)CC2)c(F)c1 (stereo not shown) [Example 266, 2-Ethyl-N-{3-fluoro-4-[4-(2-hydroxy-1-phenyl-ethyl)-piperazin-1-yl]-phenyl}-butyramide] | 785
CCC(CC)C(=O)Nc1ccc(N2CCN(C(C)c3ccccc3)CC2)c(F)c1 (stereo not shown) [Example 267, 2-Ethyl-N-{3-fluoro-4-[4-(1-phenyl-ethyl)-piperazin-1-yl]-phenyl}-butyramide] | 1270
CCC(CC)C(=O)Nc1ccc(N2CCN(Cc3ccccc3)CC2)c(F)c1 [Example 268, N-[4-(4-Benzyl-piperazin-1-yl)-3-fluoro-phenyl]-2-ethyl-butyramide] | 1400

Next, values leading:

IC50 [nM] | Structure (SMILES)
3000 | CCC(CC)C(=O)Nc1ccc(N2CCN(Cc3ccc4c(c3)OCO4)C(C(=O)OC)C2)c(F)c1 (stereo not shown) [Example 270, 1-Benzo[1,3]dioxol-5-ylmethyl-4-[4-(2-ethyl-butyrylamino)-2-fluoro-phenyl]-piperazine-2-carboxylic acid methyl ester]
4000 | CCC(CC)C(=O)Nc1ccc(N2CCN(Cc3ccccc3)C(C(=O)OC)C2)c(F)c1 (stereo not shown) [Example 271, 1-Benzyl-4-[4-(2-ethyl-butyrylamino)-2-fluoro-phenyl]-piperazine-2-carboxylic acid methyl ester]
4000 | CCC(CC)C(=O)Nc1ccc(N2CC3CC2CN3C(C(=O)N(CC)CC)c2ccccc2)c(F)c1 (stereo not shown) [Example 272, N-{4-[5-(Diethylcarbamoyl-phenyl-methyl)-2,5-diaza-bicyclo[2.2.1]heptyl]-3-fluoro-phenyl}-2-ethyl-butyramide]
7000 | CCC(CC)C(=O)Nc1ccc(N2CCN(Cc3cc(F)cc(F)c3)C(C(=O)OC)C2)c(F)c1 (stereo not shown) [Example 273, 1-(3,5-Difluoro-benzyl)-4-[4-(2-ethyl-butyrylamino)-2-fluoro-phenyl]-piperazine-2-carboxylic acid methyl ester]
1600 | CCN(CC)C(=O)C(c1ccccc1)N1CCN(c2ccc(N3CCCC3=O)cc2F)CC1 (stereo not shown) [Example 274, N,N-Diethyl-2-{4-[2-fluoro-4-(2-oxo-pyrrolidin-1-yl)-phenyl]-piperazin-1-yl}-2-phenyl-acetamide]
142 | CCN(CC)C(=O)C(c1ccccc1)N1CCN(c2ccc(CC(=O)N3CCCCC3c3ccccc3)cc2F)CC1 (stereo not shown) [Example 275, N,N-Diethyl-2-(4-{2-fluoro-4-[2-oxo-2-(2-phenyl-piperidin-1-yl)-ethyl]-phenyl}-piperazin-1-yl)-2-phenyl-acetamide]
200 | CCN(CC)C(=O)C(c1ccccc1)N1CCN(c2ccc(CC(=O)N3CCCC3c3ccccc3)cc2F)CC1 (stereo not shown) [Example 276, N,N-Diethyl-2-(4-{2-fluoro-4-[2-oxo-2-(2-phenyl-pyrrolidin-1-yl)-ethyl]-phenyl}-piperazin-1-yl)-2-phenyl-acetamide]
320 | CCC1CCCCN1C(=O)Cc1ccc(N2CCN(C(C(=O)N(CC)CC)c3ccccc3)CC2)c(F)c1 (stereo not shown) [Example 277, N,N-Diethyl-2-(4-{4-[2-(2-ethyl-piperidin-1-yl)-2-oxo-ethyl]-2-fluoro-phenyl}-piperazin-1-yl)-2-phenyl-acetamide]
320 | CCN(CC)C(=O)C(c1ccccc1)N1CCN(c2ccc(CC(=O)N(C)Cc3ccco3)cc2F)CC1 (stereo not shown) [Example 278, N,N-Diethyl-2-(4-{2-fluoro-4-[(furan-2-ylmethyl-methyl-carbamoyl)-methyl]-phenyl}-piperazin-1-yl)-2-phenyl-acetamide]
540 | CCN(CC)C(=O)C(c1ccccc1)N1CCN(c2ccc(CC(=O)N3C(C)CCC3C)cc2F)CC1 (stereo not shown) [Example 279, 2-(4-{4-[2-(2,5-Dimethyl-pyrrolidin-1-yl)-2-oxo-ethyl]-2-fluoro-phenyl}-piperazin-1-yl)-N,N-diethyl-2-phenyl-acetamide]
570 | CCN(CC)C(=O)C(c1ccccc1)N1CCN(c2ccc(CC(=O)N3CCCCC3c3cccnc3)cc2F)CC1 (stereo not shown) [Example 280, N,N-Diethyl-2-(4-{2-fluoro-4-[2-oxo-2-(3,4,5,6-tetrahydro-2H-[2,3′]bipyridinyl-1-yl)-ethyl]-phenyl}-piperazin-1-yl)-2-phenyl-acetamide]
560 | CCC(CC)NC(=O)Cc1ccc(N2CCN(C(C(=O)N(CC)CC)c3ccccc3)CC2)c(F)c1 (stereo not shown) [Example 281, N,N-Diethyl-2-(4-{4-[(1-ethyl-propylcarbamoyl)-methyl]-2-fluoro-phenyl}-piperazin-1-yl)-2-phenyl-acetamide]
940 | CCN(CC)C(=O)C(c1ccccc1)N1CCN(c2ccc(CC(=O)N3CCCC3C)cc2F)CC1 (stereo not shown) [Example 282, N,N-Diethyl-2-(4-{2-fluoro-4-[2-(2-methyl-pyrrolidin-1-yl)-2-oxo-ethyl]-phenyl}-piperazin-1-yl)-2-phenyl-acetamide]
1200 | CCN(CC)C(=O)C(c1ccccc1)N1CCN(c2ccc(CC(=O)N3CCCC3)cc2F)CC1 (stereo not shown) [Example 283, N,N-Diethyl-2-{4-[2-fluoro-4-(2-oxo-2-pyrrolidin-1-yl-ethyl)-phenyl]-piperazin-1-yl}-2-phenyl-acetamide]
1500 | CCN(CC)C(=O)Cc1ccc(N2CCN(C(C(=O)N(CC)CC)c3ccccc3)CC2)c(F)c1 (stereo not shown) [Example 284]
1900 | CCN(CC)C(=O)C(c1ccccc1)N1CCN(c2ccc(CC(=O)NCc3ccccc3)cc2F)CC1 (stereo not shown) [Example 285]
2100 | CCN(CC)C(=O)C(c1ccccc1)N1CCN(c2ccc(CC(=O)N(C)Cc3ccccc3)cc2F)CC1 (stereo not shown) [Example 286]
2200 | CCN(Cc1ccccc1)C(=O)Cc1ccc(N2CCN(C(C(=O)N(CC)CC)c3ccccc3)CC2)c(F)c1 (stereo not shown) [Example 287]
2100 | CCC(CC)NC(=O)Cc1ccc(N2CCN(C(C(=O)N3CCC(F)(F)C3)c3ccccc3)CC2)c(F)c1 (stereo not shown) [Example 288, 2-(4-{4-[2-(3,3-Difluoro-pyrrolidin-1-yl)-2-oxo-1-phenyl-ethyl]-piperazin-1-yl}-3-fluoro-phenyl)-N-(1-ethyl-propyl)-acetamide]
3450 | CCN(CC)C(=O)Cc1ccc(N2CCN(C(C(=O)N3CCC(F)(F)C3)c3ccccc3)CC2)c(F)c1 (stereo not shown) [Example 289, 2-(4-{4-[2-(3,3-Difluoro-pyrrolidin-1-yl)-2-oxo-1-phenyl-ethyl]-piperazin-1-yl}-3-fluoro-phenyl)-N,N-diethyl-acetamide]

Source: patent publication US8183239B2, “Substituted piperazines and piperidines as modulators of the neuropeptide Y2 receptor” (Janssen Pharmaceutica NV, priority 2005, dated 2012)
